*1 amine or outer side, *2 acyl side, *3 side chain or, on linkers, in order; H or OH if unused. Where a SMILES comes first, the peptide text is derived from it. Bridges are numbered along the chain shown (N, C = ends). [ ]: non-standard residue; d: D form. The star is where a group is joined. Orn(4R-OH,5R-OCH2CH2NMe3+) = C[N+](C)(C)CCO[C@@H](N[*:3])[C@H](O)C[C@H](N[*:1])C(=O)[*:2]; pTerphenylCO(4''-OnC5H11) = CCCCCOc1ccc(-c2ccc(-c3ccc(C(=O)*)cc3)cc2)cc1; hTyr(3S-OH,4S-OH) = N[C@H](C(=O)O)[C@H](O)[C@@H](O)c1ccc(O)cc1; Pro(3S-OH,4S-Me) = C[C@H]1CN[C@H](C(=O)O)[C@H]1O; Hyp = O=C(O)[C@@H]1C[C@@H](O)CN1
Key:
[1] = Rat metabolite profiling (LC-MS with radioactivity detection); type: in vivo, Sprague-Dawley rats; settings: pooled samples, IV 15 mg/kg
Experimental: (§1) (i) Rat study design. The study used 12 male Sprague-Dawley rats, each administered a bolus IV injection into the tail vein over approximately 3–4 min of 15 mg/kg of rezafungin (with a target radioactivity of 200 μCi/kg of [^14C]-rezafungin). Three of the rats were bile duct cannulated. Whole blood/plasma, urine, feces/bile, and cage washings were collected at periodic intervals from noncannulated rats until euthanization at 336 h postdose and from bile duct cannulated rats until euthanization at 120 h postdose as that was the duration that the patency of bile duct cannulae could be maintained. Carcasses were collected at the time of euthanization. All samples were analyzed for drug-derived radioactivity by liquid scintillation counting.
(§2) (iv) Metabolite profiling. The metabolite identification and urine profiling were achieved using pooled samples by equal percent weight of samples (urine, bile, feces) or by equal volume (50 μl) aliquots of each plasma sample across all time points/intervals. The urine, plasma, bile, and fecal samples were analyzed using liquid chromatography tandem mass spectrometry (LC-MS) coupled with a radioactivity flow-through detector for metabolite profiling and identification. Tandem MS experiments were performed, and the structures of the metabolites were proposed based on their MS/MS spectra. The proposed structures were confirmed by comparison of the retention times and product ion spectra with the authentic reference standards when possible.

[2] = Monkey metabolite profiling (LC-MS with radioactivity detection); type: in vivo, cynomolgus monkeys; settings: pooled samples, IV 10 mg/kg
Experimental: (ii) Monkey study design. The study used 3 male cynomolgus monkeys, each administered a single 10 mg/kg IV dose of [^14C]-rezafungin (with a target radioactivity of 100 μCi/kg of [^14C]-rezafungin) by infusion into a saphenous vein over 20 min. Whole blood and plasma samples were collected at each of the following time points: predose, 0.5, 2, 4, 8, 24, 48, 96 120, 144, 168, 240, 480, 720, and 1440 h postdose. Urine, feces, and cage washings were collected at predose (urine/feces only) and daily 24-h collections for 30 days.
as §2

[3] = cited from earlier work
Text: All three of the previously approved echinocandins (caspofungin, micafungin, and anidulafungin) are believed to undergo spontaneous chemical (non-enzymatic) degradation to a ring-opened peptide as their primary clearance mechanism ([18]). […] While protein binding is generally considered a factor in evaluation of half-life, rezafungin and the ...

[4] = Rat excretion/mass balance of [14C]-rezafungin; type: in vivo, Sprague-Dawley rats; settings: LSC; for Radioactivity recovered in feces: mean
Experimental: as §1
(§3) (iii) Sample analysis. Whole blood and fecal homogenates were combusted prior to analysis by liquid scintillation counting (LSC). Blood, plasma, bile, urine, cage rinse/wash, and fecal homogenate samples were mixed with scintillation fluid and analyzed for radioactivity by LSC. Rat carcasses were dissolved in potassium hydroxide, and the resulting digests were mixed with scintillation fluid and analyzed for radioactivity by LSC.

[5] = Rat blood and plasma radioactivity pharmacokinetics; type: in vivo, Sprague-Dawley rats; settings: IV [14C]-rezafungin 15 mg/kg, mean plasma concentrations
Experimental: as §1, §3

[6] = Human metabolite profiling (HPLC with radiochemical and HRMS detection); type: in vivo; settings: 400 mg IV
Experimental: (iv) Metabolite profiling. Plasma samples were pooled across subjects through 672 h postdose to produce inter-subject time point pools. Urine and fecal homogenate samples were pooled by subject across various time points up through 408 and 672 h postdose, respectively. Selected samples of plasma, urine, and feces were profiled for rezafungin and metabolites by HPLC with radiochemical and high-resolution mass spectrometry detection; metabolites were identified by HPLC with known standards and/or by HPLC-MS/MS structure elucidation. Pharmacokinetics were calculated by non-compartmental analysis using Phoenix WinNonlin software (version 6.3/8.1; Pharsight, Mountain View, CA).

[7] = Clinical safety in the human mass balance study; type: in vivo; settings: single IV 400-mg infusion
Experimental: (i) Study design. This was an open-label, phase I, single-dose mass balance study. The study was conducted at Labcorp (formerly, Covance, Inc.; Madison, WI) in accordance with good clinical practice, including ICH guidelines and applicable regulatory requirements, and in general conformity with the Declaration of Helsinki. No animal work was conducted by Labcorp. All pertinent study documents were reviewed by the Institutional Review Board (IRB) prior to study initiation. Following IRB approval and collection of written informed consent, all the subjects underwent an initial screening assessment within 28 days of the first dose. Safety was assessed by vital signs, physical examinations, AE assessments, laboratory tests (chemistry, hematology, and urinalysis), and a 12-lead electrocardiogram.

[8] = bile duct cannulated rats, IV 15 mg/kg, until 120 h postdose, average
[9] = intact rats, IV 15 mg/kg, through 336 h postdose, average

CCCCCOc1ccc(-c2ccc(-c3ccc(C(=O)N[C@H]4C[C@@H](O)[C@@H](OCC[N+](C)(C)C)NC(=O)[C@@H]5[C@@H](O)[C@@H](C)CN5C(=O)[C@H]([C@@H](C)O)NC(=O)[C@H]([C@H](O)[C@@H](O)c5ccc(O)cc5)NC(=O)[C@@H]5C[C@@H](O)CN5C(=O)[C@H]([C@@H](C)O)NC4=O)cc3)cc2)cc1 [rezafungin] ({pTerphenylCO(4''-OnC5H11)}-[Orn(4R-OH,5R-OCH2CH2NMe3+)]T[Hyp][hTyr(3S-OH,4S-OH)]T[Pro(3S-OH,4S-Me)]; lactam 1-C)
Radioactive component in feces and bile ([1]; rat feces and bile): predominant radioactive component
Share of total plasma radioactivity exposure ([1]; rat plasma, LC-MS with radio-detection): 56%
Share of total recovered radioactivity in feces ([2]; monkey feces): 35%
Share of total plasma radioactivity exposure ([2]; monkey plasma, LC-MS with radio-detection): 74%
Protein binding [3]: 97.4%
Radioactivity recovered in feces ([4]; bile duct cannulated rats (n = 3), single IV 15 mg/kg, until 120 h postdose): 35 % of the administered dose
Radioactivity recovered in the carcass ([4]; bile duct cannulated rats, IV 15 mg/kg, euthanized at 120 h postdose, average): 30 % of the administered dose
Average total recovery of radioactivity ([4]; bile duct cannulated rats, IV 15 mg/kg, until 120 h postdose): 98 % of the administered dose
Radioactivity recovered in bile [4, 8]: 17 % of the administered dose
Radioactivity recovered in cage residues [4, 8]: 1.2 % of the administered dose
Radioactivity recovered in feces ([4]; intact (non-bile duct cannulated) male rats, single IV bolus 15 mg/kg (200 μCi/kg), through 336 h postdose): 70 % of the administered dose
Radioactivity recovered in the carcass ([4]; intact rats, IV 15 mg/kg, at 336 h postdose, average): 7.9 % of the administered dose
Radioactivity recovered in cage residues [4, 9]: 2.5 % of the administered dose
Radioactivity recovered in urine [4, 9]: 14 % of the administered dose
t1/2 of plasma total radioactivity [5]: 54 h
Share of total recovered radioactivity in feces ([6]; human feces pooled by subject through 672 h postdose): 90%
Share of total plasma radioactivity exposure ([6]; human plasma pooled across subjects through 672 h postdose, HPLC radio/HRMS): 69%
Share of total recovered radioactivity in urine ([6]; human urine pooled by subject through 408 h postdose): negligible
Treatment-emergent adverse events (TEAEs) reported, total number ([7]; 9 healthy male subjects): 13
Deaths, SAEs ([7]; 9 subjects): no deaths or other SAEs
Laboratory assessments, vital signs, ECGs, physical examinations ([7]; 9 subjects): no clinically relevant treatment-related findings
Severe TEAEs ([7]; 9 subjects): no severe TEAEs
Subjects with diarrhea (most common TEAE) ([7]; of 9 subjects): two
